From the NIST ThermoML archive (doi:10.1021/je034078h)
Numbers after ± are expanded uncertainties.

Assay: xn = mol fraction of the nth substance listed
Settings: 101.3 kPa, Liquid; for viscosity: Capillary tube (Ostwald / Ubbelohde) method; for electrical conductivity: Shanghai Precision & Scientific Instrument Co., LTD (DDS-307)

SMILES	viscosity (288.15 K, x2 = 0.2)	viscosity (288.15 K, x2 = 0.48)	electrical conductivity (288.15 K, x2 = 0.2)	electrical conductivity (288.15 K, x2 = 0.48)	viscosity (293.15 K, x2 = 0.2)	viscosity (293.15 K, x2 = 0.48)	electrical conductivity (293.15 K, x2 = 0.2)	electrical conductivity (293.15 K, x2 = 0.48)	viscosity (298.15 K, x2 = 0.2)	viscosity (298.15 K, x2 = 0.48)	electrical conductivity (298.15 K, x2 = 0.2)	electrical conductivity (298.15 K, x2 = 0.48)	viscosity (303.15 K, x2 = 0.2)	viscosity (303.15 K, x2 = 0.48)	electrical conductivity (303.15 K, x2 = 0.2)	electrical conductivity (303.15 K, x2 = 0.48)	viscosity (308.15 K, x2 = 0.2)	viscosity (308.15 K, x2 = 0.48)	electrical conductivity (308.15 K, x2 = 0.2)	electrical conductivity (308.15 K, x2 = 0.48)
CCCCn1cc[n+](C)c1.F[P-](F)(F)(F)(F)F [1-butyl-3-methylimidazolium hexafluorophosphate] + CC(C)=O	165 ± 6.9 mPa·s	25.1 ± 0.9 mPa·s	0.00298 ± 0.00018 S/m	0.00925 ± 0.00056 S/m	127 ± 5.1 mPa·s	21.2 ± 0.7 mPa·s	0.00342 ± 0.00021 S/m	0.00965 ± 0.00058 S/m	100.2 ± 3.9 mPa·s	18.2 ± 0.6 mPa·s	0.00375 ± 0.00023 S/m	0.0102 ± 0.00061 S/m	79.8 ± 3 mPa·s	16 ± 0.5 mPa·s	0.00429 ± 0.00026 S/m	0.0106 ± 0.00064 S/m	64.1 ± 2.4 mPa·s	13.8 ± 0.5 mPa·s	0.00467 ± 0.00028 S/m	0.011 ± 0.00066 S/m
CCCCn1cc[n+](C)c1.F[P-](F)(F)(F)(F)F [1-butyl-3-methylimidazolium hexafluorophosphate] + CCO	200.6 ± 8.7 mPa·s	48 ± 1.7 mPa·s	0.00302 ± 0.00018 S/m	0.0068 ± 0.00041 S/m	148.1 ± 6.2 mPa·s	37.7 ± 1.3 mPa·s	0.00336 ± 0.0002 S/m	0.00733 ± 0.00044 S/m	113.7 ± 4.5 mPa·s	30.1 ± 1 mPa·s	0.0038 ± 0.00023 S/m	0.00798 ± 0.00048 S/m	88.4 ± 3.4 mPa·s	24.8 ± 0.8 mPa·s	0.0043 ± 0.00026 S/m	0.00863 ± 0.00052 S/m	71.5 ± 2.7 mPa·s	21 ± 0.7 mPa·s	0.00475 ± 0.00029 S/m	0.00933 ± 0.00056 S/m
CCCCn1cc[n+](C)c1.F[P-](F)(F)(F)(F)F [1-butyl-3-methylimidazolium hexafluorophosphate] + O	–	–	–	–	166.4 ± 9.4 mPa·s	–	0.0033 ± 0.0002 S/m	–	128.7 ± 5.2 mPa·s	–	0.00372 ± 0.00022 S/m	–	99.2 ± 3.9 mPa·s	–	0.00429 ± 0.00026 S/m	–	78.2 ± 3.4 mPa·s	–	0.00478 ± 0.00029 S/m	–
